{"source": "patent US20050038005A1", "about": "“Method of intermittent administration of a pharmaceutical for the treatment of conditions associated with a female's menstrual cycle” (priority 2003, published 2005)", "origin": "cited, not measured here", "key": {"[1]": {"details": "calcium supplementation; especially pain and water retention"}, "[2]": {"details": "magnesium supplementation, oral"}, "[3]": {"details": "administration of fluoxetine"}, "[4]": {"details": "intermittent administration for approximately fourteen days prior to the start of menses"}}}
{"smiles": "[Ca+2]", "note": "[Calcium]", "values": [{"measurement": "alleviation of symptoms associated with PMS", "setting": "[1]", "result": "effective treatment for alleviating some of the symptoms associated with PMS"}]}
{"smiles": "[Mg+2]", "note": "[Magnesium]", "values": [{"measurement": "relief of symptoms of PMS", "setting": "[2]", "result": "relieve some symptoms of PMS, particularly pain and mood fluctuations"}]}
{"smiles": "CNCCC(Oc1ccc(C(F)(F)F)cc1)c1ccccc1", "note": "(stereo not shown) [fluoxetine]", "values": [{"measurement": "amelioration of symptoms of PMS/PMDD", "setting": "[3]", "result": "ameliorate the symptoms of PMS/PMDD"}, {"measurement": "efficacy in treating the symptoms of PMS", "setting": "[4]", "result": "efficacious in treating the symptoms of PMS"}]}
